Data on 26 molecules can be found in US10377770B2 (Novartis AG, priority 2015, dated 2019).

The test deals with C-Raf FL (full length CRAF with Y340E and Y341E activating mutations, co-expressed with h14-3-3 zeta) (Homo sapiens (Human), UniProt P04049, Y340E/Y341E). In words: In vitro Raf activity determination, AlphaScreen p-MEK readout, c-Raf (C-Raf FL). Type of test: biochemical. To be noted: c-Raf approximately 4 nM, ATP 1 μM, pre-incubation 60 minutes, reaction 1 hour. In short, it runs like this:
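Full-length C-Raf (~4 nM) pre-incubated 60 min at room temperature with compound and kinase-dead biotinylated MEK1 (~10 nM) in Tris pH 7.5, 15 mM MgCl2, BSA, DTT. Reaction started with 1 μM ATP and run 1 h at room temperature. Phospho-MEK detected by AlphaScreen with anti-p-MEK antibody.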

Chain of C-Raf FL (full length CRAF with Y340E and Y341E activating mutations, co-expressed with h14-3-3 zeta) (P04049 whole entry Y340E/Y341E): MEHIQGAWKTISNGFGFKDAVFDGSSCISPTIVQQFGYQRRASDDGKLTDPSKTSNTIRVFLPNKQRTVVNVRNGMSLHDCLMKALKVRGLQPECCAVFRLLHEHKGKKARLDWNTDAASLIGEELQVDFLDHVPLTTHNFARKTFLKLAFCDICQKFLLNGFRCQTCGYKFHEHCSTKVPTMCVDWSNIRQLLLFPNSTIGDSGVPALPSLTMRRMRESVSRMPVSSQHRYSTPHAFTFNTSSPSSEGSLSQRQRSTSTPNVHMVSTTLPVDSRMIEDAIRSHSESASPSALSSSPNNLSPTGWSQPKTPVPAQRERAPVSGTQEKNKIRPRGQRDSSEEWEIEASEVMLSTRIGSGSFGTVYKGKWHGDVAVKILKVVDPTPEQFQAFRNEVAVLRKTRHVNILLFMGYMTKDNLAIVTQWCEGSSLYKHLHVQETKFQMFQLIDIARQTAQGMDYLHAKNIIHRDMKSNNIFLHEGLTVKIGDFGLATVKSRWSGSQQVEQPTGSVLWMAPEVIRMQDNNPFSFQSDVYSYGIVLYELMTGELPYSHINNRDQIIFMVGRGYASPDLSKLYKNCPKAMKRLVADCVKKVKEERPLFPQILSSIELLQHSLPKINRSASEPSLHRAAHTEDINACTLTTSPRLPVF
Chain of C-Raf FL (full length CRAF with Y340E and Y341E activating mutations, co-expressed with h14-3-3 zeta) (P63104 whole entry partner): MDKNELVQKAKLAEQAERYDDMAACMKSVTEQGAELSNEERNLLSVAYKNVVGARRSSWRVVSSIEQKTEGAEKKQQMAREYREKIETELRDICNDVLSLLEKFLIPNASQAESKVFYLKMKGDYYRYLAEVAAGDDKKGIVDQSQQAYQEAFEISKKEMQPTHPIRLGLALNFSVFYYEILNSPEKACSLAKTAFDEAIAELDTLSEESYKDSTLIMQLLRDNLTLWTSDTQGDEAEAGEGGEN

In turn, `Cc1ccc(NC(=O)c2ccnc(C(C)(F)F)c2)cc1-c1cnc2c(c1)N1CCOC[C@@H]1[C@@H](C(C)(C)O)C2` [Example 459, 2-(1,1-difluoroethyl)-N-(3-((4aS,5S)-5-(2-hydroxypropan-2-yl)-1,2,4,4a,5,6-hexahydro-[1,4]oxazino[4,3-a][1,5]naphthyridin-9-yl)-4-methylphenyl) isonicotinamide] showed a 50% inhibitory concentration (IC50) of 0.4 nM. Molecule `CNC[C@H]1Cc2ncc(-c3cc(NC(=O)c4ccnc(C(F)(F)F)c4)ccc3C)cc2N2CCOC[C@H]12` [Example 531, N-(4-methyl-3-((4aS,5R)-5-((methylamino)meth-yl)-1,2,4,4a,5,6-hexahydro-[1,4]oxazino[4,3-a][1,5]naphthyridin-9-yl)phenyl)-2-(trifluoromethyl)iso-nicotinamide] yielded an IC50 of 0.2 nM.

`CCN1C(=O)Cc2nncn2-c2cc(-c3cc(NC(=O)c4cccc(C(F)(F)F)c4)cnc3C)cnc21` [Example 238, N-(5-(6-ethyl-5-oxo-5,6-dihydro-4H-pyrido[2,3-b][1,2,4]triazo1o[4,3-d][1,4]diazepin-9-yl)-6-methylpyridin-3-yl)-3-(trifluoromethyl) benzamide]: half-maximal inhibition (IC50) required 2.7 nM. This IC50 is about 14-fold higher than that of the molecule before.

For the molecule `Cc1ccc(NC(=O)c2ccnc(C(F)(F)F)c2)cc1-c1cnc2c(c1)N1CCOC[C@H]1C[C@@H]2O` (racemic) [Example 37, (rac)-(cis)-N-(3-(6-hydroxy-1,2,4,4a,5,6-hexahydro-[1,4]oxazino[4,3-a][1,5]naphthyridin-9-yl)-4-methylphenyl)-2-(trifluoromethyl)isonicotinamide], inhibition was half-maximal at 0.0081 nM (IC50).

As for `Cc1ccc(NC(=O)c2ccnc(C(C)(F)F)c2)cc1-c1cnc2c(c1)N1CCOC[C@H]1[C@H](CO)C2` [Example 117, 2-(1,1-Difluoroethyl)-N-(3-((4aR,5R)-5-(hydroxymethyl)-1,2,4,4a,5,6-hexahydro-[1,4]oxazino[4,3-a][1,5]naphthyridin-9-yl)-4-methylphenyl)isonicotinamide], the IC50 was found to be 0.0047 nM. In turn, `Cc1ccc(NC(=O)c2ccnc(C(C)(F)F)c2)cc1-c1ccc2c(c1)N1CCOC[C@H]1C1(COC1)C2` [Example 57, (R)-2-(1,1-difluoroethyl)-N-(4-methyl-3-(1′,2′,4′,4a′-tetrahydro-6′H-spiro[oxetane-3,5′-[1,4]oxazino[4,3-a]quinolin]-9′-yl)phenyl)isonicotinamide] gave a half-inhibitory concentration (IC50) of 0.011 nM. `CCN1C(=O)[C@H]2COCC[C@@H]2c2cc(-c3cc(NC(=O)c4cccc(C(F)(F)F)c4)cnc3C)cnc21` [Example 309, N-(5-((4aR, 10bS)-6-ethyl-5-oxo-1,4,4a,5,6,10b-hexahydro-2H-pyrano[3,4 - c][1,8]naphthyridin-9-yl)-6-methylpyridin-3-yl)-3-(trifluoromethyl) benzamide]: half-maximal inhibition (IC50) required 0.3 nM. Compared with the last molecule, the IC50 is about 27-fold higher. On to `Cc1ccc(NC(=O)c2ccnc(C(F)(F)F)c2)cc1-c1ccc2c(c1)N1CCOC[C@H]1C[C@H]2O` [Example 4, N-(3-((4aR,6R)-6-hydroxy-1,2,4,4a,5,6-hexahydro-[1,4]oxazino[4,3-a]quinolin-9-yl)-4-methylphenyl)-2-(trifluoromethyl)isonicotinamide], for which 0.0062 nM corresponded to half-maximal inhibition (IC50). For `Cc1ccc(NC(=O)c2ccnc(C(C)(F)F)c2)cc1-c1ccc2c(c1)N1CCOC[C@H]1[C@](F)(CF)C2` [Example 473] the value was 1.5 nM; for `Cc1ncc(NC(=O)c2cccc(C(F)(F)F)c2)cc1-c1cnc2c(c1)N1CCOC[C@H]1C[C@H]2O` [Example 105, N-(5-((4aR,6R)-6-Hydroxy-1,2,4,4a,5,6-hexahydro-[1,4]oxazino[4,3-a][1,5]naphthyridin-9-yl)-6-methylpyridin-3-yl)-3-(trifluoromethyl)benzamide], 0.045 nM; for `Cc1ccc(NC(=O)c2ccnc(C(C)(F)F)c2)cc1-c1cc2c(nn1)OCC1COCCN21` (racemic) [Example 135, rac-2-(1,1-Difluoroethyl)-N-(4-methyl-3-(6a,7,9,10-tetrahydro-6H-[1,4]oxazino[4,3-d]pyridazino[3,4-b][1,4]oxazin-2-yl)phenyl)isonicotinamide], 0.019 nM. For `Cc1ccc(NC(=O)c2ccnc(C(C)(F)F)c2)cc1-c1cnc2c(c1)[C@@H]1CCOC[C@H]1C(=O)N2CC(F)F` [Example 265, 2-(1,1-difluoroethyl)-N-(3-((4aS, 10bR)-6-(2,2-difluoroethyl)-5-oxo-2,4,4a,5,6,10b-hexahydro-1H-pyrano[3,4-c][1,8]naphthyridin-9-yl)4-methylphenyl) isonicotinamide] the value was 0.1 nM; for `CCN1C[C@@H]2CCOCCN2c2cc(-c3cc(NC(=O)c4cccc(C(F)(F)F)c4)cnc3C)cnc2C1=O` [Example 506, (S)-N-(5-(7-ethyl-8-oxo-1,2,4,5,5a,6,7,8-octahydropyrido[2′, 3′:6,7][1,4]diazepino [1,2-d][1,4]oxazepin-11-yl)-6-methylpyridin-3-yl)-3-(trifluorometh-yl)benzamide], 80.3 nM. As for `Cc1ccc(NC(=O)c2ccnc(C(C)(F)F)c2)cc1-c1ccc2c(c1)N1CCOC[C@@H]1C(CO)(CO)C2` [Example 53, (S)—N-(3-(5,5-bis(hydroxymethyl)-1,2,4,4a,5,6-hexahydro-[1,4]oxazino[4,3-a]quinolin-9-yl)-4-methylphenyl)-2-(1,1-difluoroethyl)isonicotinamide], the figure is 0.0062 nM.

For `CO[C@@H]1C[C@@H]2COCCN2c2cc(-c3cc(NC(=O)c4cccc(C(F)(F)F)c4)cnc3C)ccc21` (racemic) [Example 32, (rac)-(trans)-N-(5-(6-methoxy-1,2,4,4a,5,6-hexahydro-[1,4]oxazino[4,3-a]quinolin-9-yl)-6-methylpyridin-3-yl)-3-(trifluoromethyl)benzamide], the IC50 was found to be 0.023 nM. Consider `Cc1ccc(NC(=O)c2ccnc(C(C)(F)F)c2)cc1-c1cnc2c(c1)N1CCOCC1CC(=O)N2` (racemic) [Example 124, rac-2-(1,1-Difluoroethyl)-N-(4-methyl-3-(6-oxo-1,2,4a,5,6,7-hexahydro-4H-[1,4]oxazino[4,3-d]pyrido[2,3-b][1,4]diazepin-10-yl)phenyl)isonicotinamide], for which the IC50 came out at 0.0094 nM. For `Cc1ncc(NC(=O)c2ccnc(C(C)(F)F)c2)cc1-c1ccc2c(c1)N1CCOCCC1CC2O` (racemic) [Example 96, (rac)-2-(1,1-difluoroethyl)-N-(5-(7-hydroxy-1,2,5,5a,6,7-hexahydro-4H-[1,4]oxazepino[4,5-a]quinolin-10-yl)-6-methylpyridin-3-yl)isonicotinamide] the value was 0.053 nM; for `Cc1ccc(NC(=O)c2ccnc(C(F)(F)F)c2F)cc1-c1cnc2c(c1)C1C3COCC3C1C(=O)N2CCO` (centres unmarked) [Example 283, 3-fluoro-N-(3-(5-(2-hydroxyethyl)-6-oxo-5,6,6a,6b,7,9,9a,9b-octahydrofuro[3′,4′: 3,4]cyclobuta[1,2-c][1,8]naphthyridin-2-yl)-4-methylphenyl)-2-(trifluoromethyl)-2-isonicotinamide], 0.2 nM; for `Cc1ccc(NC(=O)c2ccnc(C(C)(F)F)c2)cc1-c1cnc2c(c1)[C@@H]1CCOC[C@H]1C(=O)N2C(C)C` [Example 263, 2-(1,1-difluoroethyl)-N-(3-((4aS, 10bR)-6-isopropyl-5-oxo-2,4,4a,5,6,10b-hexahydro-1H-pyrano[3,4-c][1,8]naphthyridin-9-yl)-4-methylphenyl) isonicotinamide], 0.3 nM.

`Cc1ccc(NC(=O)c2ccnc(C(C)(F)F)c2)cc1-c1ccc2c(c1)N1CCOC[C@@H]1[C@@](CO)(CF)C2` [Example 407, 2-(1,1-difluoroethyl)-N-(3-((4aS,5S)-5-(fluoromethyl)-5-(hydroxymethyl)-1,2,4,4a,5,6-hexahydro-[1,4]oxazino[4,3-a]quinolin-9-yl)-4-methylphenyl)isonicotinamide] registered an IC50 of 0.1 nM. As to `Cc1ccc(NC(=O)c2ccnc(C(C)(C)F)c2)cc1-c1cc2n(c(=O)c1)CCC1CCOCCN21` (stereo in doubt) [Example 418, (S)-2-(2-fluoropropan-2-yl)-N-(4-methyl-3-(9-oxo-1,2,5,5a,6,7-hexahydro-4H,9H-pyrido[2′,1′:2,3]pyrimido[1,6-d][1,4]oxazepin-11-yl)phenyl)isonicotinamide], the 50% inhibitory concentration (IC50) stood at 2.1 nM. For `Cc1ncc(NC(=O)c2ccnc(C(F)(F)F)c2)cc1-c1ccc2c(c1)N1CCOCC[C@H]1C[C@@H]2O` [Example 443, N-(5-((5aS,7S)-7-hydroxy-1,2,5,5a,6,7-hexahydro-4H-[1,4]oxazepino [4,5-a]quinolin-10-yl)-6-methylpyridin-3-yl)-2-(trifluoromethyl) isonicotinamide] the value was 0.6 nM. Regarding `Cc1ccc(NC(=O)c2ccnc(C(F)(F)F)c2)cc1-c1cnc2c(c1)N1CCOCC1C(F)(F)C2O` (racemic) [Example 166, rac-cis-N-(3-(5,5-difluoro-6-hydroxy-1′2′4′4a′5′6-hexahydro-[1,4]oxazino[4,3-a][1,5]naphthyridin-9-yl)-4-methylphenyl)-2-(trifluoromethyl)isonicotinamide], the IC50 is 0.011 nM. This IC50 lies about 55-fold lower than the previous one. Turning to `Cc1ccc(NC(=O)c2ccnc(C(C)(F)F)c2)cc1-c1cnc2c(c1)N1CCOC[C@H]1[C@](C#N)(CF)C2` [Example 518, N-(3-((4aR,5R)-5-cyano-5-(fluoromethyl)-1,2,4,4a,5,6-hexahydro-[1,4]oxazino[4,3-a][1,5]naphthyridin-9-yl)-4-methyphenyl)-2-(1,1-difluoroethyl)iso-nicotinamide], the IC50 was 0.1 nM.

With `Cc1ccc(NC(=O)c2ccnc(C(C)(F)F)c2)cc1-c1ccc2c(c1)N1CCOC[C@]1(C)C[C@@H]2O` (relative stereo) [Example 26], 0.014 nM corresponded to half-maximal inhibition (IC50).

Molecule `CCN1C(=O)C2COCCN2c2cc(-c3cc(NC(=O)c4ccnc(C(F)(F)F)c4)ccc3C)cnc21` (racemic) [Example 113, rac-N-(3-(6-Ethyl-5-oxo-1,2,4,4a,5,6-hexahydropyrido[2′,3′:5,6]pyrazino[2,1-c][1,4]oxazin-9-yl)-4-methylphenyl)-2-(trifluoromethyl)isonicotinamide] yielded an IC50 of 0.0084 nM.
